Laboratory results: PMC3764403 (Chemistry & Biology, 2008)
Like-named read-outs stand apart in the source and are kept apart here. Numbered stars: 1 amine (or outer) side, 2 acyl side, 3 side chain; on linkers, the order of the positions; unused ones are H or OH. Square brackets hold non-standard residues; d marks the D form. Side chains are listed from the residue outwards. Peptide text beside a SMILES is read from it. NMeF = CN[C@@H](Cc1ccccc1)C(=O)O; CO = O=C([*:1])[*:2]

Legend:
[1] = target: T1, chitinase B1 from Aspergillus fumigatus (AfChiB1) (Aspergillus fumigatus, UniProt Q873X9); test: biochemical; settings: for AfChiB1 BEI (Binding Efficiency Index): BEI = −log(Ki)/M, M in kilodaltons, Ki derived from IC50 by Cheng and Prusoff equation
T1 construct: made in house; host or cells: Escherichia coli
Experimental: Chitinase activities for AfChiB1 ([Rao et al., 2005b]), hCHT ([Boot et al., 1998]), and total chitinase activity in lung homogenate samples from a mouse model of chronic asthma were determined as previously described ([Schüttelkopf et al., 2006]). […] AfChiB1 (2 nM) was incubated with 20 μM 4-methylumbelliferyl-β-D-N-N'-diacetylchitobiose (4MU-GlcNAc2; Sigma) and 0.25 mg/ml bovine serum albumin in 100 mM citric acid, 200 mM Na2HPO4 (pH 5.5). hCHT (0.3 nM) was incubated with 22 μM 4-methylumbelliferyl-β-D-N-N'-triacetylchitobiose (4MU-GlcNAc3; Sigma) and 0.25 mg/ml bovine serum albumin in 100 mM citric acid, 200 mM Na2HPO4 (pH 5.2). Lung homogenate (39 μg/ml) (obtained as described previously [[Schüttelkopf et al., 2006]]) was incubated with 20 μM 4MU-GlcNAc2 in 100 mM citric acid, 200 mM Na2HPO4 (pH 5.5). All reactions were run for 10 min at 37°C, and liberated 4-methylumbelliferone (4MU) was quantified after addition of 25 μl 3 M glycine-NaOH (pH 10.6) using an Flx 800 microtiterplate fluorescence reader (Bio-Tek instruments) with 40 nm slits and excitation and emission wavelengths of 360 nm and 460 nm, respectively.

[2] = target: T1, chitinase B1 from Aspergillus fumigatus (AfChiB1); settings: Table 1, argifin value reported previously, ref Rao et al., 2005b, Dixon et al.; cited from earlier work
[3] = target: chitinase B from Serratia marcescens; set-up: method as in Houston et al., 2002b; settings: ref Houston et al., 2002b; read-out: IC50 against chitinase B from Serratia marcescens; cited from earlier work

Row | Compound | AfChiB1 BEI (Binding Efficiency Index) [1] | IC50 [2] [µM] | IC50 [3] [µM] | IC50 ([1]; read-out: IC50 against AfChiB1) [µM]
1 | argifin | 11.7 | 0.027 | 33 | 
2 | CNC(=N)NC(=O)NC [Dimethylguanylurea, dimethylguanylurea] | 27.7 |  |  | 
3 | CNC(=O)NC(=N)NCCCC(NC(C)=O)C(=O)NC (stereo not shown) [Monopeptide] | 15.3 |  |  | 81
4 | CNC(=O)NC(=N)NCCC[C@H](NC(C)=O)C(=O)N(C)[C@@H](Cc1ccccc1)C(=O)N[C@@H](CC(=O)O)C(=O)O [Tripeptide] (Ac-Arg([CO-NHMe])-[NMeF]-Asp-OH) | 10.2 |  |  | 
